The text below walks through data of US20230119082A1, “(AZIRIDINYL HYDROXY)-FUNCTIONAL ORGANIC COMPOUNDS” (COVESTRO (NETHERLANDS) B.V., priority 2020, published 2023).

The subject of data set [1] is Bscl2-GFP. In words: in vitro. Conditions: mouse; for fold induction at 3 h / fold induction at 24 h: −fold induction Bscl 2. Here is the method: (§1) In the context of the specification, the genotoxicity is measured according to the ToxTracker® assay (Toxys, Leiden, the Netherlands) as described in the Examples.
(§2) The genotoxicity was determined according to the ToxTracker® assay (Toxys, Leiden, the Netherlands) as described below.
(§3) This methodology uses a two-step approach.
(§4) Positive reference treatment with cisplatin (DNA damage) was included in all experiments. Metabolic was evaluated by the addition of S9 liver extract. […] Only GFP expression in single intact cells is determined. Mean GFP fluorescence and cell concentrations in each well are measured, which is used for cytotoxicity assessment. Data were analyzed using ToxPlot software (Toxys, Leiden, the Netherlands).

The test system of data set [2] is Rtkn-GFP. In words: in vitro. The following applies: mouse. Here is the method:
as §1, §2, §3, §4

The term fold induction denotes the ratio of treated to control signal. Low readings indicate little rise in signal, high ones a large rise in signal. Consider `CC1CN1CC(O)CN(Cc1cccc(CN(CC(O)CN2CC2C)CC(O)CN2CC2C)c1)CC(O)CN1CC1C` (stereo not drawn) [Example 2C], for which, in data set [1], the fold induction at 3 h was found to be 1.3 and the fold induction at 24 h was 1.3.
With `CC1CN1CC(O)COc1ccc(N(CC(O)CN2CC2C)CC(O)CN2CC2C)cc1` (stereo not drawn) [Example 3C], in data set [2], the fold induction at 24 h came to 1.7. In data set [1], the fold induction at 3 h was determined as 1.2 and the fold induction at 24 h came to 1.1.
As for `CC1CN1CC(O)COc1ccc(C(C)(C)c2ccc(OCC(O)CN3CC3C)cc2)cc1` (stereo not drawn) [Example 4C], in data set [1], the fold induction at 3 h came out at 1.1 and the fold induction at 24 h was 1.1.
On to `CC1CN1CC(O)COC(=O)NCCCCCCn1c(=O)n(CCCCCCNC(=O)OCC(O)CN2CC2C)c(=O)n(CCCCCCNC(=O)OCC(O)CN2CC2C)c1=O` (stereo not drawn) [Example 3], for which, in data set [2], the fold induction at 3 h amounted to 1.1 and the fold induction at 24 h was found to be 1.2. Further, the “−fold induction Bscl 2” value in data set [1] (3 h) is 1.5 fold. In data set [1], this compound showed a fold induction at 3 h of 1.2 and a fold induction at 24 h of 1.1.
